# According to patent US20160271149A1, “[…] COMPOUNDS THAT […] PROTEIN ARGININE […] ACTIVITY FOR REDUCING TUMOR CELL PROLIFERATION” (Epinova Therapeutics Corp., priority 2015, published 2016):
# Where “and” joins values, the source holds several entries; their conditions need not be identical. Equal entries are not always repeated.
# Columns and labels:
# PRMTs = experiment: Screen against protein arginine methyltransferases, summary statement
# Experimental: (§1) A 10 mM DMSO stock solution of each test compound was prepared.
# (§2) Compounds were tested in a single-dose mode, in duplicate at the following concentrations.
# (§3) Reactions were carried out at 1 μM SAM. The no inhibitor control was set as 100% activity).
# LXRα = target: T1, LXRα (Homo sapiens, UniProt Q13133); conditions: human isoform; cited from earlier work
# T1 sequence (Q13133 1-447): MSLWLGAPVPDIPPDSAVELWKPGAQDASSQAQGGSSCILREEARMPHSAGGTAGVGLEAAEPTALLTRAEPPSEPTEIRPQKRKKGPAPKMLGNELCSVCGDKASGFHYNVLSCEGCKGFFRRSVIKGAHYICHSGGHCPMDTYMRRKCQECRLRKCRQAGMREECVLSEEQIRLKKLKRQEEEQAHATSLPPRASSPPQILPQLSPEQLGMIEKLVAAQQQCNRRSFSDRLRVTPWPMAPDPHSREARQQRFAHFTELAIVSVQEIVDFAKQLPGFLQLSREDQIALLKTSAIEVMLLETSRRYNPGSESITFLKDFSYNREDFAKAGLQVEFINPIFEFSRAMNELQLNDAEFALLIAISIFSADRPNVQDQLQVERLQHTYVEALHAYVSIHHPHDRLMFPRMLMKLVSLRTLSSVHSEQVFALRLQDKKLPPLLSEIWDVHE
# LXR and FXR = conditions: cited from earlier work
# PRMT1 = PRMT1 (Homo sapiens, UniProt Q99873); experiment: Methyltransferase activity screen, PRMT1, substrate Histone H4; conditions: single-dose mode, duplicate (Data 1, Data 2), 1 μM SAM, 100 μM
# Experimental: as §1, §2, §3
# PRMT6 = PRMT6 (Homo sapiens, UniProt Q96LA8); experiment: Methyltransferase activity screen, PRMT6, substrate Histone H3; conditions: PRMT6, substrate Histone H3, single-dose mode, duplicate (Data 1, Data 2), 1 μM SAM, 100 μM
# Experimental: as §1, §2, §3
# PRMT5 = PRMT5 (Homo sapiens, UniProt O14744); experiment: Methyltransferase activity screen, PRMT5, substrate Histone H2A; conditions: PRMT5, substrate Histone H2A, single-dose mode, duplicate (Data 1, Data 2), 1 μM SAM, 100 μM
# Experimental: as §1, §2, §3
# PRMT5/MEP50 = PRMT5/MEP50 (Homo sapiens, UniProt O14744); experiment: Methyltransferase activity screen and profiling, PRMT5/MEP50, substrate Histone H2A; conditions: for % Enzyme Activity (relative to DMSO controls): PRMT5/MEP50, substrate Histone H2A, single-dose mode, duplicate (Data 1, Data 2), 1 μM SAM, 100 μM; for % Activity / Raw data: PRMT5/MEP50 profiling; for HILLSLOPE: Table 4, PRMT5/MEP50 dose-response curve fit
# Sequence of PRMT5/MEP50 (O14744 whole entry): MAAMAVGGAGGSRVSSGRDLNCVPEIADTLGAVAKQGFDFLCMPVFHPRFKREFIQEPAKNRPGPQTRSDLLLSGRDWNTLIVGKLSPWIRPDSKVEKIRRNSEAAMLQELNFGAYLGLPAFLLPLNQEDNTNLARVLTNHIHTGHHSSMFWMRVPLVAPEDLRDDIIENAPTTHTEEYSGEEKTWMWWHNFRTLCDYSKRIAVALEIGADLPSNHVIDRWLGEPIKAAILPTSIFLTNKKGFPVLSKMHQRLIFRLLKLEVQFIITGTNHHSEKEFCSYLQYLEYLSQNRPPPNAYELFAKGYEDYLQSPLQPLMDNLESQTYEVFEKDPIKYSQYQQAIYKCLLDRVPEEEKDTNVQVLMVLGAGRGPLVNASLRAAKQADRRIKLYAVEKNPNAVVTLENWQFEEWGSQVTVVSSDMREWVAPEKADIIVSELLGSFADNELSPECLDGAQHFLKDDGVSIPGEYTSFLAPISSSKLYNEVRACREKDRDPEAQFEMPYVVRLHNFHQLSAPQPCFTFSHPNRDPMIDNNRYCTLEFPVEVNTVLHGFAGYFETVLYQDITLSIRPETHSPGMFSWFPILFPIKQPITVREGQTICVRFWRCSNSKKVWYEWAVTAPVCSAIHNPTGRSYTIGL
# Sequence of PRMT5/MEP50 (Q9BQA1 whole entry partner): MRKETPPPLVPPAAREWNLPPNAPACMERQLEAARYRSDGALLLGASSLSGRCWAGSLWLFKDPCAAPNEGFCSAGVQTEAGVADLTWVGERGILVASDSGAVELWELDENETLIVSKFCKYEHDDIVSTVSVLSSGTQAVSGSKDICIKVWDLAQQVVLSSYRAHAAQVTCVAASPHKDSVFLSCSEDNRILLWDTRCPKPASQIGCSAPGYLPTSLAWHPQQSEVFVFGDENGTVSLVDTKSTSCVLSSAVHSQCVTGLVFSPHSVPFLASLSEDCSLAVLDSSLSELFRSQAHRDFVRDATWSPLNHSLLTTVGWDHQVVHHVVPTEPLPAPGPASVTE
# Experimental: as §1, §2, §3
# Sequence of PRMT6 (Q96LA8 whole entry): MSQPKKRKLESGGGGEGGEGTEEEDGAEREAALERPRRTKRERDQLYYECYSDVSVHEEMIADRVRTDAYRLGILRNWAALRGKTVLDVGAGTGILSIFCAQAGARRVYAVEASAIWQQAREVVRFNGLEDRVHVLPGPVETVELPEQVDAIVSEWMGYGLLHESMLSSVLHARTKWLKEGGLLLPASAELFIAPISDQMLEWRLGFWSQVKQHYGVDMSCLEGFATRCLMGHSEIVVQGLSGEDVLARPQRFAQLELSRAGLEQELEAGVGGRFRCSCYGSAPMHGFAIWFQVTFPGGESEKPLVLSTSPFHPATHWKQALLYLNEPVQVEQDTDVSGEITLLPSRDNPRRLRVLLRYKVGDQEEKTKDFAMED
# Sequence of PRMT1 (Q99873 whole entry): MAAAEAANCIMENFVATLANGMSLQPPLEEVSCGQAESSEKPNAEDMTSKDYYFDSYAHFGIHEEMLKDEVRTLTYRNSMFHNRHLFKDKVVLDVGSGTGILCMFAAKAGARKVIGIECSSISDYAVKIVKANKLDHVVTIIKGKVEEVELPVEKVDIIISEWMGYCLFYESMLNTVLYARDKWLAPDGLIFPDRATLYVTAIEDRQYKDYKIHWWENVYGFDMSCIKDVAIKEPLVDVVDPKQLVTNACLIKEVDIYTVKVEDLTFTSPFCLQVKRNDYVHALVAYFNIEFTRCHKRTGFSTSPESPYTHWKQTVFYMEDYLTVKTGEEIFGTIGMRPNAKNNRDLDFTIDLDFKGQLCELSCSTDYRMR
# Sequence of PRMT5 (O14744 whole entry): as the sequence (O14744 whole entry) above
IC50 (PRMT5/MEP50),% Activity (PRMT5/MEP50; Conc. 1.00E−04 M),Raw data (PRMT5/MEP50; Conc. 1.00E−04 M),% Activity (PRMT5/MEP50; Conc. 1.11E−05 M),Raw data (PRMT5/MEP50; Conc. 1.11E−05 M),% Activity (PRMT5/MEP50; Conc. 1.23E−06 M),Raw data (PRMT5/MEP50; Conc. 1.23E−06 M),% Activity (PRMT5/MEP50; Conc. 1.37E−07 M),Raw data (PRMT5/MEP50; Conc. 1.37E−07 M),% Activity (PRMT5/MEP50; Conc. 1.52E−08 M),Raw data (PRMT5/MEP50; Conc. 1.52E−08 M),% Activity (PRMT5/MEP50; Conc. 3.33E−05 M),Raw data (PRMT5/MEP50; Conc. 3.33E−05 M),% Activity (PRMT5/MEP50; Conc. 3.70E−06 M),Raw data (PRMT5/MEP50; Conc. 3.70E−06 M),% Activity (PRMT5/MEP50; Conc. 4.12E−07 M),Raw data (PRMT5/MEP50; Conc. 4.12E−07 M),% Activity (PRMT5/MEP50; Conc. 4.57E−08 M),Raw data (PRMT5/MEP50; Conc. 4.57E−08 M),Compound,affinity for LXR and FXR (LXR and FXR),also measured
–,–,–,–,–,–,–,–,–,–,–,–,–,–,–,–,–,–,–,"C[C@H](CCC(=O)O)[C@H]1CC[C@H]2[C@@H]3[C@H](O)C[C@@H]4C[C@H](O)CC[C@]4(C)[C@H]3CC[C@]12C [Chenodeoxycholic acid, 3α, 7α-dihydroxy-5β-cholan-24-oic acid]",–,direct inhibitory effect on PRMTs (PRMTs): no direct inhibitory effect
84.2 µM,1.47%,6431,124.34%,544281,105.86%,463366,103.73%,454053,95.29%,417100,137.65%,602561,112.86%,494019,103.66%,453763,99.34%,434862,"Cl.O=C(O)Cc1cccc(OCCCN(Cc2cccc(C(F)(F)F)c2Cl)CC(c2ccccc2)c2ccccc2)c1 [GW 3965, 3-[3-[[[2-chloro-3-(trifluoromethyl)phenyl]methyl](2,2-diphenylethyl)amino]propoxy]-benzeneacetic acid, monohydrochloride]",nanomolar affinity,EC50 (LXRα): 0.29 µM; % Enzyme Activity (relative to DMSO controls) (PRMT1; monohydrochloride): 6.93% and 4.55%; % Enzyme Activity (relative to DMSO controls) (PRMT6; monohydrochloride): 83.29% and 103.66%; % Enzyme Activity (relative to DMSO controls) (PRMT5; monohydrochloride): 90.29% and 97.35%; % Enzyme Activity (relative to DMSO controls) (PRMT5/MEP50; monohydrochloride): 1.54% and 1.23%; % Activity (PRMT5/MEP50; Conc. 5.08E−09 M): 98.94%; Raw data (PRMT5/MEP50; Conc. 5.08E−09 M): 433085; HILLSLOPE (PRMT5/MEP50): −24.99
79.2 µM,5.70%,24954,117.75%,515444,105.80%,463109,99.86%,437127,96.95%,424387,120.51%,527528,103.51%,453113,99.48%,435450,97.26%,425743,"CC(C)c1onc(-c2c(Cl)cccc2Cl)c1COc1ccc(C=Cc2cccc(C(=O)O)c2)c(Cl)c1 [GW 4064, 3-[2-[2-chloro-4-[[3-(2,6-dichlorophenyl)-5-(1-methylethyl)-4-isoxazolyl]methoxy]phenyl]ethenyl]-benzoic acid]",nanomolar affinity,% Activity (PRMT5/MEP50; Conc. 5.08E−09 M): 94.60%; Raw data (PRMT5/MEP50; Conc. 5.08E−09 M): 414110; HILLSLOPE (PRMT5/MEP50): −12.23
–,–,–,–,–,–,–,–,–,–,–,–,–,–,–,–,–,–,–,"CC[C@H]1[C@@H](O)[C@@H]2[C@H](CC[C@]3(C)[C@@H]([C@H](C)CCC(=O)O)CC[C@@H]23)[C@@]2(C)CC[C@@H](O)C[C@@H]12 [INT-747, 6α-Ethyl-chenodeoxycholic acid]",–,% Enzyme Activity (relative to DMSO controls) (PRMT1): 112.72% and 115.42%; % Enzyme Activity (relative to DMSO controls) (PRMT6): 312.24% and 288.93%; % Enzyme Activity (relative to DMSO controls) (PRMT5): 106.35% and 105.51%; % Enzyme Activity (relative to DMSO controls) (PRMT5/MEP50): 95.73% and 93.91%
